In patent US20240245694A1, “Tricyclic Compounds and their Uses” (Novartis AG, priority 2022, published 2024) one finds GI50 and IC50 data, which are given here for eight compounds.

The test system of assay [1] is SW48 cells. Briefly: Proliferation assay SW48 (CellTiterGlo, 96 hours). Type of assay: cell-based. The conditions noted are these: Homo sapiens. The text has this:
(§1) The colon carcinoma cell lines SW48 (RRID: CVCL_1724), HCT 116 (RRID: CVCL_0291) and SNU-407 (RRID: CVCL_5058) were obtained from ATCC. The WRN-knockdown insensitive colon carcinoma cell line DLD-1 (RRID: CVCL_0248) was obtained from the Korean Cell Line Bank (KCLB), and used to generate a derivative in which the endogenous WRN gene copies were knocked out by CRISPR-mediated editing using standard CRISPR methods. The resulting cell line, DLD1-WRN-KO, was used to assess potential off-target compound effects.
(§2) SW48, SNU-407 and DLD1-WRN-KO cells were cultured in growth medium composed of RPMI-1640 (Amimed Cat #1-41F22-1), 2 mM L-Glutamine (Amimed Cat #5-10K50), 10 mM HEPES (Gibco Cat #15630-056), 1 mM sodium pyruvate (Amimed Cat #5-60F00-H), 1× Penicillin-Streptomycin (Amimed Cat #4-01F00-H) and 10% fetal calf serum (Amimed Cat #2-01F30-G, Lot #LB11566P). HCT 116 cells were cultured in growth medium composed of McCoys 5A (Amimed catalog #1-18F01-1), 2 mM L-Glutamine (Amimed Cat #5-10K50), 1× Penicillin-Streptomycin (Amimed Cat #4-01F00-H) and 10% fetal calf serum (Amimed Cat #2-01F30-G, Lot #LB11566P). All cells were maintained at 37° C. in a humidified 5% CO2 incubator.
(§3) Following filtration through a Steriflip-NY 20 μm filter (Millipore Cat #SCNY00020), trypsinized cells were seeded in 100 microliters growth medium at 2′000 (SW48) or 1′500 (SNU-407, DLD1-WRN-KO, HCT 116) cells/well into white, clear-bottom 96-well plates (Costar Cat #3903). Three replicate plates were prepared for each compound treatment condition. In addition, one plate (termed “day 0”) was prepared to quantify the number of viable cells at the time of compound addition. Following overnight incubation at 37° C. in a humidified 5% CO2 atmosphere, eight 3-fold serial dilutions of a given compound stock (obtained at a concentration of 10 mM in DMSO and stored at 4° C.) were dispensed directly into each of the triplicate assay plates using a HP 300D non-contact Digital Dispenser (TECAN). The final concentration of DMSO was normalized to 0.1% in all wells. 96 hours after compound addition, cellular ATP levels as a surrogate for cell viability was assessed following addition of 50 microliters CellTiterGlo (Promega Cat #G7573) reagent and luminescence quantification on a MPLEX multi-mode plate-reader (TECAN) following a 10 minute incubation at room temperature. The number of viable cells in the “day 0” plate were quantified identically on the day of compound addition.
(§4) For data analysis, the assay background signal that was determined in wells containing medium, but no cells, was subtracted from all other data points prior to further calculations. The extent of growth inhibition and potential cell kill was assessed by comparing the ATP levels (measured using CellTiterGlo, Promega) in compound-treated cells with those present at the time of compound addition. To this end, the following conditional concept was programmatically applied in HELIOS, an in-house software applying a multi-step decision tree to arrive at optimal concentration response curve fits (Gubler et al, SLAS DOI: 10.1177/2472555217752140) to calculate % growth (% G) for each compound-treated well: % G=(T−V0)/V0))*100 when T<V0, and % G=(T−V0)/(V−V0)))*100 when T>V0, where V0 is the viability level at time of compound addition, while V and T represent vehicle-control and compound-treated viability levels, respectively, at the end of the compound incubation. 100%, 0% and −100% signify absence of growth inhibition, growth stasis, and complete cell kill, respectively. Compound concentrations leading to half-maximal growth inhibition (G150) and residual cell viability at the highest tested compound concentration (Data (cmax), expressed in percent) were routinely calculated. Data analysis can also be carried out using commercially available software designed to derive IC50 values using 4-parameter fits (e.g. GraphPad Prism, XL fit). […]
Background: Cellular ATP, detected with luciferase, serves as a proxy for viable cell number.

The subject of assay [2] is DLD1-WRN-KO cells. Briefly: Proliferation assay DLD1-WRN-KO (CellTiterGlo, 96 hours), off-target effects. Type of assay: cell-based. The conditions noted are these: Homo sapiens.
Description: as §1, §2, §3, §4

Assay [3] has as its target WRN helicase (core helicase motif aa N517-P1238) (Homo sapiens (Human), UniProt Q14191). The experiment in a line: WRN ATPase assay (ADP-Glo), DNA dependent ATP hydrolysis. The class given is biochemical. The conditions noted are these: 3 hours pre-incubation, 300 micromolar ATP, FLAP26 ssDNA; geometric means of at least 2 determinations. From the text:
An ATPase assay was set up to measure the DNA dependent ATP hydrolysis activity of WRN helicase. This assay was used also to assess the inhibition properties of compounds of the invention on DNA dependent WRN ATPase activity.
The core helicase motif of the WRN protein (aa N517-P1238) was produced for this assay (protein production as described above). A 45 oligonucleotide sequence called “FLAP26” as described by Brosh et al., 2009, DOI: 10.1074/jbc.M111446200 ([…]; SEQ ID NO: 2) was purchased from IDT (Integrated DNA Technologies, Leuven, Belgium) and used as single strand DNA substrate. The ADP-Glo assay kit (Promega, Madison, WI) allowing the quantification of ADP produced in ATP hydrolysis reactions was used for setting up this assay. Time course experiments were first performed in order to determine the best enzymatic assay conditions (including buffer conditions, reaction time and concentrations of protein, ATP and DNA substrates). A typical reaction consists of 10 nM WRN protein, 0.2 nM FLAP26, and 300 micromolar ATP in the following assay buffer: 30 mM Tris pH7.5, 2 mM MgCl2, 0.02% BSA, 50 mM NaCl, 0.1% pluronic F127 prepared in DNAse free water.
To evaluate the inhibition properties of compounds of the invention, serial dilutions were prepared in DMSO (10 half log dilutions from a 10 mM DMSO solution). 50 nanoliters of each concentration was pre-incubated for 3 hours in a 384 small volume assay plate (Greiner #784075) with 2.5 microliters of a 20 nM WRN helicase protein in assay buffer with 600 micromolar ATP. Control wells were included with a “high control” (no inhibition), containing DMSO with no test compound, and “low controls” (maximal inhibition), containing buffer without protein. The reaction was started by addition of 2.5 microliters of FLAP26 at 0.4 nM and incubated for 30 minutes at room temperature. The reaction was stopped with the addition of 5 microliters of the first ADP-Glo reagent and incubated for one hour to remove the excess amount of ATP. Afterwards, 10 microliters of ATP detection reagent was added and incubated for an additional hour before reading. Luminescence output was recorded using Tecan 1000 reader, with 5 minutes delay before reading. Each concentration of compound was tested in duplicates in the assay plate.
Data analysis was carried out using an in-house developed software (Novartis Helios software application, Novartis Institutes for BioMedical Research, unpublished) using the methods described by Formenko et al., 2006, DOI: 10.1016/j.cmpb.2006.01.008. Following normalization of activity values for the wells to % inhibition (% inhibition=[(high control-sample)/(high control-low control)]×100), IC50 fitting was carried out from the duplicate determinations present on each plate according to [4]. Data analysis can also be carried out using commercially available software designed to derive IC50 values using 4-parameter fits (e.g. GraphPad Prism, XL fit). The reported IC50 values are the geometrical means of at least 2 independent replicates.
(In general: ADP-Glo first removes unused ATP, then detects ADP through luciferase.)

WRN helicase (core helicase motif aa N517-P1238), sequence (Q14191 517-1238): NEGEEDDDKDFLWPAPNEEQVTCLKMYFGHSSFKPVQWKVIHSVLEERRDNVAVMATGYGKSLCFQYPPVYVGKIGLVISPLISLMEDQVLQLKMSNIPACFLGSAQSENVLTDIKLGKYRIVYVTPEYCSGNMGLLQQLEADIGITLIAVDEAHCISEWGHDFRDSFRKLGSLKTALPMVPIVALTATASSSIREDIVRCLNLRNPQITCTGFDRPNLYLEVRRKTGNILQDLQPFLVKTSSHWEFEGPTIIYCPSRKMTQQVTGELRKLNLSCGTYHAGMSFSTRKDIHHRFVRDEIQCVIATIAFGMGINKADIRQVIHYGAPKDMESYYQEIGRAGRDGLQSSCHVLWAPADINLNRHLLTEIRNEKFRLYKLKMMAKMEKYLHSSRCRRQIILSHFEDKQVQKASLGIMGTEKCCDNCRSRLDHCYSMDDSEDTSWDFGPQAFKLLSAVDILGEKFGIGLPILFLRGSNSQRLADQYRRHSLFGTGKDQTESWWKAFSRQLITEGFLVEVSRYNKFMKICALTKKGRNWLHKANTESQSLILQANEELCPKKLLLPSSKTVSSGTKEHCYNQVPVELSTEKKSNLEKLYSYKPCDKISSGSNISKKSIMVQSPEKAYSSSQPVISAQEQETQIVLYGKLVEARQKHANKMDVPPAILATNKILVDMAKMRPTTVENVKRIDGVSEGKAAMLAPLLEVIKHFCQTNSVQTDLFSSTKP

Turning to `Cc1ncnc(C(=O)N2CCN(c3c4n(c5nc(C6=CCOCC6)nn5c3=O)[C@@H](C(=O)Nc3ccc(C(F)(F)F)cc3Cl)C[C@H]4C)CC2)c1O` [Example 14A, (7R,9R)—N-(2-chloro-4-(trifluoromethyl)phenyl)-2-(3,6-dihydro-2H-pyran-4-yl)-6-(4-(5-hydroxy-6-methylpyrimidine-4-carbonyl)piperazin-1-yl)-7-methyl-5-oxo-5,7,8,9-tetrahydropyrrolo[1,2-c][1,2,4]triazolo[1,5-a]pyrimidine-9-carboxamide], the results for the GI50 in assay [1] and in assay [2] were 20 nM and greater than 10000 nM, respectively. Further, the IC50 (usually the concentration needed to halve the response being measured) in assay [3] was determined as 40 nM.
Turning to `Cc1ncnc(C(=O)N2CCN(c3c4n(c5nc(C6=CCOCC6)nn5c3=O)[C@@H](C(=O)Nc3ccc(C(F)(F)F)nc3Cl)C[C@H]4C)CC2)c1O` [Example 4A, (7R,9R)—N-(2-chloro-6-(trifluoromethyl)pyridin-3-yl)-2-(3,6-dihydro-2H-pyran-4-yl)-6-(4-(5-hydroxy-6-methylpyrimidine-4-carbonyl)piperazin-1-yl)-7-methyl-5-oxo-5,7,8,9-tetrahydropyrrolo[1,2-c][1,2,4]triazolo[1,5-a]pyrimidine-9-carboxamide], the 50% growth inhibitory concentration (GI50) (as a rule, the concentration giving 50% growth inhibition) in assay [1] is 100 nM; in assay [2], greater than 10000 nM. This compound also displayed an IC50 in assay [3] of 90 nM.
Turning to `Cc1ncnc(C(=O)N2CCN(c3c4n(c5nc(C6=CC(=O)OCC6)nn5c3=O)[C@@H](C(=O)Nc3ccc(C(F)(F)F)cc3Cl)C[C@H]4C)[C@H]3CC[C@@H]32)c1O` [Example 25, (7R,9R)—N-(2-chloro-4-(trifluoromethyl)phenyl)-6-((1S,6S)-5-(5-hydroxy-6-methylpyrimidine-4-carbonyl)-2,5-diazabicyclo[4.2.0]octan-2-yl)-7-methyl-5-oxo-2-(6-oxo-3,6-dihydro-2H-pyran-4-yl)-5,7,8,9-tetrahydropyrrolo[1,2-c][1,2,4]triazolo[1,5-a]pyrimidine-9-carboxamide], the GI50 in assay [1] is 10 nM; in assay [2], greater than 10000 nM.
On to `Cc1cc(C(F)(F)F)ccc1NC(=O)[C@H]1C[C@@H](C)c2c(N3CCN(C(=O)c4ncccc4O)CC3)c(=O)n3nc(C4=CCOCC4)nc3n21` [Example 15A, (7R,9R)-2-(3,6-dihydro-2H-pyran-4-yl)-6-(4-(3-hydroxypicolinoyl)piperazin-1-yl)-7-methyl-N-(2-methyl-4-(trifluoromethyl)phenyl)-5-oxo-5,7,8,9-tetrahydropyrrolo[1,2-c][1,2,4]triazolo[1,5-a]pyrimidine-9-carboxamide], for which the GI50 in assay [1] was 30 nM; in assay [2], greater than 10000 nM. Half-maximal inhibition in assay [3] (IC50) required 50 nM.
Regarding `CC(=O)N1CCN(c2c3n(c4nc(-c5ccccc5)nn4c2=O)[C@H](C(=O)Nc2ccc(C(F)(F)F)cc2)CC3)CC1` [Example 22B, (S)-6-(4-acetylpiperazin-1-yl)-5-oxo-2-phenyl-N-(4-(trifluoromethyl)phenyl)-5,7,8,9-tetrahydropyrrolo[1,2-c][1,2,4]triazolo[1,5-a]pyrimidine-9-carboxamide], the IC50 in assay [3] is greater than 100000 nM.
For the compound `Cc1nccc(C(=O)N2CCN(c3c4n(c5nc(C6=CCOCC6)nn5c3=O)[C@@H](C(=O)Nc3ccc(C(F)(F)F)cc3Cl)C[C@H]4C)CC2)c1O` [Example 10, (7R,9R)—N-(2-chloro-4-(trifluoromethyl)phenyl)-2-(3,6-dihydro-2H-pyran-4-yl)-6-(4-(3-hydroxy-2-methylisonicotinoyl)piperazin-1-yl)-7-methyl-5-oxo-5,7,8,9-tetrahydropyrrolo[1,2-c][1,2,4]triazolo[1,5-a]pyrimidine-9-carboxamide], the concentration for 50% growth inhibition (GI50) in assay [1] was 200 nM; in assay [2], greater than 10000 nM. In assay [3], this compound showed a half-inhibitory concentration (IC50) of 90 nM.
As for `Cc1cc(C(F)(F)F)ccc1NC(=O)[C@H]1C[C@@H](C)c2c(N3CCN(C(=O)c4ncnc(C)c4O)CC3)c(=O)n3nc(C4=CCOCC4)nc3n21` [Example 17, (7R,9R)-2-(3,6-dihydro-2H-pyran-4-yl)-6-(4-(5-hydroxy-6-methylpyrimidine-4-carbonyl)piperazin-1-yl)-7-methyl-N-(2-methyl-4-(trifluoromethyl)phenyl)-5-oxo-5,7,8,9-tetrahydropyrrolo[1,2-c][1,2,4]triazolo[1,5-a]pyrimidine-9-carboxamide], the GI50 was 20 nM in assay [1] and greater than 10000 nM in assay [2]. The same compound had an IC50 in assay [3] of 60 nM.
The compound `Cc1cc(C(F)(F)F)ccc1NC(=O)[C@@H]1CCc2c(N3CCN(C(=O)c4nccc(Cl)c4O)CC3)c(=O)n3nc(C4=CCOCC4)nc3n21` [Example 19B, (S)-6-(4-(4-chloro-3-hydroxypicolinoyl)piperazin-1-yl)-2-(3,6-dihydro-2H-pyran-4-yl)-N-(2-methyl-4-(trifluoromethyl)phenyl)-5-oxo-5,7,8,9-tetrahydropyrrolo[1,2-c][1,2,4]triazolo[1,5-a]pyrimidine-9-carboxamide] showed an IC50 in assay [3] of 44000 nM.
